# Experimental data from patent publication US20230012368A1 (Hoffmann-La Roche Inc., priority 2018, published 2023).
# Where a name gives a salt, the structure may show the parent alone.
# Tested on: Acinetobacter baumannii ATCC 17978
# Assay: Antimicrobial susceptibility testing: 90% growth inhibitory concentration (IC90) determination
# Type: cell-based
# Conditions: 90% growth inhibitory concentration; Acinetobacter baumannii ATCC17978; Iso-Sensitest broth, OD 600 nm over 16h; read-out: ATCC17978 IC90
# In short: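 Growth of the Acinetobacter baumannii strain was followed by optical density at 600 nm every 20 minutes for 16h at 35±2° C. Inoculum was ~5×10^(5) CFU/ml in Iso-Sensitest medium, with twofold compound dilutions (e.g. 50 to 0.097 μM final). The 90% inhibitory concentration was derived in log-phase growth.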
row,SMILES,IC90 [µM]
1,"N#CCOc1ccc(-c2cnc3c(Nc4ccc(C(=O)NCCc5nnn[nH]5)c(Cl)c4)nccn23)c(F)c1F [Example 104, 2-chloro-4-[[3-[4-(cyanomethoxy)-2,3-difluoro-phenyl]imidazo[1,2-a]pyrazin-8-yl]amino]-N-[2-(1H-tetrazol-5-yl)ethyl]benzamide]",1.1
2,"CCc1cc(Nc2nccn3c(-c4ccc(OC)c(F)c4F)cnc23)ccc1C(=O)NCC(=O)N(C)CCNC [Example 158, 4-((3-(2,3-difluoro-4-methoxyphenyl)imidazo[1,2-a]pyrazin-8-yl)amino)-2-ethyl-N-(2-(methyl(2-(methylamino)ethyl)amino)-2-oxoethyl)benzamide; formic acid]",0.16
3,"COc1ccc(-c2cnc3c(Nc4ccc(C(=O)N(C)CC5CCOCC5)c(Cl)c4)nccn23)c(F)c1F [Example 41, 2-chloro-4-[[3-(2,3-difluoro-4-methoxy-phenyl)imidazo[1,2-a]pyrazin-8-yl]amino]-N-methyl-N-(tetrahydropyran-4-ylmethyl)benzamide; 2,2,2-trifluoroacetic acid]",0.62
4,"Cc1cc(Nc2nccn3c(-c4ccc(Cl)c(F)c4F)cnc23)ccc1C(=O)NC(C)CCN (stereo not drawn) [Example 318, N-(4-aminobutan-2-yl)-4-[[3-(4-chloro-2,3-difluorophenyl)imidazo[1,2-a]pyrazin-8-yl]amino]-2-methylbenzamide; hydrochloride]",2.5
5,"CCc1cc(Nc2nccn3c(-c4ccc(Oc5ccc(C(=O)NCCN)cn5)c(F)c4F)cnc23)ccc1C(=O)NC [Example 490, N-(2-aminoethyl)-6-[4-[8-[3-ethyl-4-(methylcarbamoyl)anilino]imidazo[1,2-a]pyrazin-3-yl]-2,3-difluoro-phenoxy]pyridine-3-carboxamide; formic acid]",0.45
6,"COc1ccc(-c2cnc3c(Nc4ccc(C(=O)N(C)CCN5CCN(CC(F)F)CC5)c(C)c4)nccn23)cc1F [Example 113, N-[2-[4-(2,2-difluoroethyl)piperazin-1-yl]ethyl]-4-[[3-(3-fluoro-4-methoxy-phenyl)imidazo[1,2-a]pyrazin-8-yl]amino]-N,2-dimethyl-benzamide; formic acid]",2
7,"COc1ccc(-c2cnc3c(Nc4ccc(C(=O)NCCC5CCN(C)CC5)c(C)c4)nccn23)cc1 [Example 195, 4-[[3-(4-methoxyphenyl)imidazo[1,2-a]pyrazin-8-yl]amino]-2-methyl-N-[2-(1-methylpiperidin-4-yl)ethyl]benzamide;hydrochlo-ride]",0.36
8,"COc1ccc(-c2cnc3c(Nc4ccc(C(=O)N(C)CCN5CCNCC5)c(Cl)c4)nccn23)c(F)c1F [Example 44, 2-chloro-4-[[3-(2,3-difluoro-4-methoxy-phenyl)imidazo[1,2-a]pyrazin-8-yl]amino]-N-methyl-N-(2-piperazin-1-ylethyl)benzamide; 2,2,2-trifluoroacetic acid]",0.12

# Same assay, conditions: Acinetobacter baumannii, ATCC17978, 16 h, 90% growth inhibitory concentration; Acinetobacter baumannii ATCC17978; Iso-Sensitest broth, OD 600 nm over 16h; read-out: ATCC17978 IC90
row,IC90 [µM],SMILES
1,0.24,"CNCCN1CCc2cc(Nc3nccn4c(-c5ccc(OC)c(F)c5F)cnc34)ccc2C1=O [Example 300, 6-[[3-(2,3-difluoro-4-methoxyphenyl)imidazo[1,2-a]pyrazin-8-yl]amino]-2-[2-(methylamino)ethyl]-3,4-dihydroisoquinolin-1-one;hydrochloride]"
2,0.12,"COc1ccc(-c2cnc3c(Nc4ccc(C(=O)NCCCCCN5CCNCC5)c(C)c4)nccn23)cc1F [Example 272, 4-[[3-(3-fluoro-4-methoxyphenyl)imidazo[1,2-a]pyrazin-8-yl]amino]-2-methyl-N-(5-piperazin-1-ylpentyl)benzamide;hydrochlo-ride]"
3,0.35,"Cc1cc(Nc2nccn3c(-c4ccc(OC(F)F)cc4)cnc23)ccc1C(=O)N(C)CCN1CCNCC1 [Example 45, 4-[[3-[4-(difluoromethoxy)phenyl]imidazo[1,2-a]pyrazin-8-yl]amino]-N,2-dimethyl-N-(2-piperazin-1-ylethyl)benzamide]"
4,0.29,"COc1ccc(-c2cnc3c(Nc4ccc5c(c4)CCN(CCCN)C5=O)nccn23)c(F)c1F [Example 164, 2-(3-aminopropyl)-6-[[3-(2,3-difluoro-4-methoxy-phenyl)imidazo[1,2-a]pyrazin-s-yl]amino]-3,4-dihydroisoquinolin-1-one]"
5,0.11,"COc1ccc(-c2cnc3c(Nc4ccc(C(=O)N[C@H](C)CNC(=N)C(C)C)c(Cl)c4)nccn23)c(F)c1F [Example 509, (R)-2-chloro-4-((3-(2,3-difluoro-4-methoxyphenyl)imidazo[1,2-a]pyrazin-8-yl)amino)-N-(1-isobutyrimidamidopropan-2-yl)benzamide]"
6,0.56,"COc1ccc(-c2cnc3c(Nc4ccc(C(=O)N(C)CCCC(=O)N5CCNCC5)c(C)c4)nccn23)cc1F [Example 207, 4-[[3-(3-fluoro-4-methoxyphenyl)imidazo[1,2-a]pyrazin-8-yl]amino]-N,2-dimethyl-N-(4-oxo-4-piperazin-1-ylbutyl)benzamide;hydrochlo-ride]"
7,0.1,"CCc1cc(Nc2nccn3c(-c4ccc(OC)c(F)c4F)cnc23)ccc1C(=O)NCCCNC(=O)[C@@H](N)CCNC(=N)N [Example 367, N-[3-[[(2S)-2-amino-4-carbamimidamidobutanoyl]amino]propyl]-4-[[3-(2,3-difluoro-4-methoxyphenyl)imidazo[1,2-a]pyrazin-8-yl]amino]-2-ethylbenzamide;formic acid]"
8,0.22,"COc1ccc(-c2cnc3c(Nc4ccc(C(=O)NCCCCCN)c(C)c4)nccn23)cc1 [Example 184, N-(5-aminopentyl)-4-[[3-(4-methoxyphenyl)imidazo[1,2-a]pyrazin-8-yl]amino]-2-methylbenzamide; hydrochlo-ride]"
9,0.12,"COc1ccc(-c2cnc3c(Nc4ccc(C(=O)NCCCN5CCNC(=O)C5)c(C)c4)nccn23)c(F)c1F [Example 65, 4-((3-(2,3-difluoro-4-methoxyphenyl)imidazo [1,2-a]pyrazin-8-yl)amino)-2-methyl-N-(3-(3-oxopiperazin-1-yl)propyl)benzamide]"
10,0.98,"CCc1cc(Nc2nccn3c(-c4ccc(Oc5ccncn5)c(F)c4F)cnc23)ccc1C(=O)N[C@@H](C)CNC(=O)[C@@H](N)CCNC(=N)N [Example 457, N-[(1S)-2-[[(2S)-2-amino-4-guanidino-butanoyl]amino]-1-methyl-ethyl]-4-[[3-(2,3-difluoro-4-pyrimidin-4-yloxy-phenyl)imidazo[1,2-a]pyrazin-8-yl]amino]-2-ethyl-benzamide; formic acid]"
11,0.1,"CCc1cc(Nc2nccn3c(-c4ccc(OCC#N)c(F)c4F)cnc23)ccc1C(=O)NCCNC(=O)[C@@H](N)[C@@H](C)O [Example 138, N-[2-[[(2S,3R)-2-amino-3-hydroxy-butanoyl]amino]ethyl]-4-[[3-[4-(cyanomethoxy)-2,3-difluoro-phenyl]imidazo[1,2-a]pyrazin-8-yl]amino]-2-ethyl-benzamide formate]"
12,0.07,"CCc1cc(Nc2nccn3c(-c4ccc(OC)c(F)c4F)cnc23)ccc1C(=O)NCC1CCN(C(=O)C2CCNCC2)CC1 [Example 546, 4-((3-(2,3-difluoro-4-methoxyphenyl)imidazo[1,2-a]pyrazin-8-yl)amino)-2-ethyl-N-((1-(piperidine-4-carbonyl)piperidin-4-yl)methyl)benzamide 2,2,2-trifluoroacetate]"
13,0.54,"COc1ccc(-c2cnc3c(Nc4ccc(C(=O)NCCNC(=O)CC[C@H]5C(=O)N5C)c(C)c4)nccn23)c(F)c1F [Example 338, 4-[[3-(2,3-difluoro-4-methoxyphenyl)imidazo[1,2-a]pyrazin-8-yl]amino]-2-methyl-N-[2-[3-[(2S)-1-methyl-3-oxoaziridin-2-yl]propanoylamino]ethyl]benz-amide]"
14,0.55,COc1ccc(-c2cnc3c(Nc4ccc(C(=N)NCC(N)=O)c(C)c4)nccn23)cc1 [Example 17]
15,0.53,"CC(=O)N1CCC(CCN(C)C(=O)c2ccc(Nc3nccn4c(-c5ccc(OC(F)F)cc5)cnc34)cc2C)CC1 [Example 204, N-[2-(1-acetylpiperidin-4-yl)ethyl]-4-[[3-[4-(difluoromethoxy)phenyl]im-idazo[1,2-a]pyrazin-8-yl]amino]-N,2-dimethylbenzamide]"
16,0.39,"CCc1cc(Nc2nccn3c(-c4ccc(OC)c(F)c4F)cnc23)ccc1C(=O)NCC(O)CNC(=O)[C@@H](N)CCN (mixture of isomers) [Example 414, rac-N-(3-((R)-2,4-diaminobutanamido)-2-hydroxypropyl)-4-((3-(2,3-difluoro-4-methoxyphenyl)imidazo[1,2-a]pyrazin-8-yl)amino)-2-ethylbenzamide dihydrochloride]"
17,0.59,"Cc1cc(Nc2nccn3c(-c4ccc(OC(F)F)cc4)cnc23)ccc1C(=O)N1CCC(C(=O)NC[C@H](O)[C@@H](O)[C@H](O)[C@H](O)CO)CC1 [Example 306, 1-[4-[[3-[4-(difluoromethoxy)phenyl]im-idazo[1,2-a]pyrazin-8-yl]amino]-2-methylbenzoyl]-N-[(2S,3R,4R,5R)-2,3,4,5,6-pentahydroxyhexyl]piperidine-4-carboxamide]"
18,0.24,"CCc1cc(Nc2nccn3c(-c4ccc(OC)c(F)c4F)cnc23)ccc1C(=O)NCC(O)CNC(=O)[C@@H](N)CCNC(=N)N (mixture of isomers) [Example 416, rac-N-(3-((R)-2-amino-4-guanidinobutanamido)-2-hydroxypropyl)-4-((3-(2,3-difluoro-4-methoxyphenyl)imidazo[1,2-a]pyrazin-8-yl)amino)-2-ethylbenzamide diformate]"
19,0.36,"CCc1cc(Nc2nccn3c(-c4ccc(OC(F)F)c(F)c4F)cnc23)ccc1C(=O)NCC(=O)NCCN(C)C [Example 404, 4-((3-(4-(difluoromethoxy)-2,3-difluorophenyl)imidazo[1,2-a]pyrazin-8-yl)amino)-N-(2-((2-(dimethylamino)ethyl)amino)-2-oxoethyl)-2-ethylbenzamide]"
